Legend:
NCI-H522 = assay: NCI 60 cell line panel (SRB), NCI-H522; assay type: cell-based; conditions: Homo sapiens; NCI-H522, Non-Small Cell Lung Cancer; single dose of 10 μM; read-out: Cell Growth Percent
HS 578T = assay: NCI 60 cell line panel (SRB), HS 578T; assay type: cell-based; conditions: Homo sapiens, Breast Cancer, single dose of 10 μM, read-out: Cell Growth Percent
DU-145 = assay: NCI 60 cell line panel (SRB), DU-145; assay type: cell-based; conditions: Homo sapiens; DU-145, Prostate Cancer; single dose of 10 μM; read-out: Cell Growth Percent
HCC-2998 = assay: NCI 60 cell line panel (SRB), HCC-2998; assay type: cell-based; conditions: Homo sapiens; HCC-2998, Colon Cancer; single dose of 10 μM; read-out: Cell Growth Percent
MDA-MB-231/ATCC = assay: NCI 60 cell line panel (SRB), MDA-MB-231/ATCC; assay type: cell-based; conditions: Homo sapiens, Breast Cancer, single dose of 10 μM, read-out: Cell Growth Percent
MOLT-4 = assay: NCI 60 cell line panel (SRB), MOLT-4; assay type: cell-based; conditions: Homo sapiens; MOLT-4, Leukemia; single dose of 10 μM; read-out: Cell Growth Percent
HOP-92 = assay: NCI 60 cell line panel (SRB), HOP-92; assay type: cell-based; conditions: Homo sapiens; HOP-92, Non-Small Cell Lung Cancer; single dose of 10 μM; read-out: Cell Growth Percent
VEGFR-2 (KDR) = molecular target: T1, VEGFR-2 (KDR) (Homo sapiens, UniProt P35968); assay: In vitro VEGFR-2 tyrosine kinase activity (Kinase-Glo Plus luminescence, BPS Bioscience); assay type: biochemical; conditions: single dose concentration of 10 μM
T1 construct: purchased BPS Bioscience 40301
T1 sequence (P35968 20-1356): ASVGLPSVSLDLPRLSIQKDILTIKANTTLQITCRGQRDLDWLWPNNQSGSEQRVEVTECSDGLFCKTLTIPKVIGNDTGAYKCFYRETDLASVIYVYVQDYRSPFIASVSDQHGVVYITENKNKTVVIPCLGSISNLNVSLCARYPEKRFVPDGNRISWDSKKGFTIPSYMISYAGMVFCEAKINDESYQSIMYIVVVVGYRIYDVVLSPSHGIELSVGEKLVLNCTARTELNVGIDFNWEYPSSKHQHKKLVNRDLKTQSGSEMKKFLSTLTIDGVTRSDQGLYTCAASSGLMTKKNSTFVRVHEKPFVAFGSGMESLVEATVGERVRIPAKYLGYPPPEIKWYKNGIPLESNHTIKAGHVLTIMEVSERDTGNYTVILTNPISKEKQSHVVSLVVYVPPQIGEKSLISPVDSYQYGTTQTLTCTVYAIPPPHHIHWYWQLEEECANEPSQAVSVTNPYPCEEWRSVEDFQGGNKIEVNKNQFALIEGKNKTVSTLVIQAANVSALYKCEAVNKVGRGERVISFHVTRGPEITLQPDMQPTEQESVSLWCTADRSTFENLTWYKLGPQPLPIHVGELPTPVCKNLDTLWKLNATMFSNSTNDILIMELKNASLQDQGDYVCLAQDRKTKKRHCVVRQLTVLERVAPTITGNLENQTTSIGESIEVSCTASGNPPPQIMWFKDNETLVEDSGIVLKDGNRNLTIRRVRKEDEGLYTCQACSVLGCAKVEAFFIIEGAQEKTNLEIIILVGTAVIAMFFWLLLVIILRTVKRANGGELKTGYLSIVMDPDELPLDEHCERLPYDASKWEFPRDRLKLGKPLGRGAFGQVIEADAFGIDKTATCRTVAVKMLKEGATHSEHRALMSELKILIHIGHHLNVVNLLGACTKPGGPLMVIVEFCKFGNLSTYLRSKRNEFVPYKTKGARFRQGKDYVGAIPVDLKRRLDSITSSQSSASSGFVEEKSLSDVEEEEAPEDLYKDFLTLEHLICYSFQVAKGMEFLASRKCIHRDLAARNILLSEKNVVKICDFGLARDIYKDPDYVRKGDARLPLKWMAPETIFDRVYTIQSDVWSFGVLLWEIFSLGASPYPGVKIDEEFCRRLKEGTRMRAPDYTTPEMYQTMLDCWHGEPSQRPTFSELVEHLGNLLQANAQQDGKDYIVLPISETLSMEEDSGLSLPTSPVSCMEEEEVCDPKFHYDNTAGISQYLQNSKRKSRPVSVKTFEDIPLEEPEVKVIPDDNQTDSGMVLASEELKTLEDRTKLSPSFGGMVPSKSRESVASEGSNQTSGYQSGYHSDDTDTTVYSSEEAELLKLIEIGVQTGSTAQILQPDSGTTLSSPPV

SF-539 = assay: NCI 60 cell line panel (SRB), SF-539; assay type: cell-based; conditions: Homo sapiens; SF-539, CNS Cancer; single dose of 10 μM; read-out: Cell Growth Percent
SR = assay: NCI 60 cell line panel (SRB), SR; assay type: cell-based; conditions: Homo sapiens, Leukemia, single dose of 10 μM, read-out: Cell Growth Percent
PC-3 = assay: NCI 60 cell line panel (SRB), PC-3; assay type: cell-based; conditions: Homo sapiens; PC-3, Prostate Cancer; single dose of 10 μM; read-out: Cell Growth Percent
SNB-75 = assay: NCI 60 cell line panel (SRB), SNB-75; assay type: cell-based; conditions: Homo sapiens; SNB-75, CNS Cancer; single dose of 10 μM; read-out: Cell Growth Percent
NCI-H23 = assay: NCI 60 cell line panel (SRB), NCI-H23; assay type: cell-based; conditions: Homo sapiens; NCI-H23, Non-Small Cell Lung Cancer; single dose of 10 μM; read-out: Cell Growth Percent
A498 = assay: NCI 60 cell line panel (SRB), A498; assay type: cell-based; conditions: Homo sapiens; A498, Renal Cancer; single dose of 10 μM; read-out: Cell Growth Percent
UACC-257 = assay: NCI 60 cell line panel (SRB), UACC-257; assay type: cell-based; conditions: Homo sapiens; UACC-257, Melanoma; single dose of 10 μM; read-out: Cell Growth Percent
RXF 393 = assay: NCI 60 cell line panel (SRB), RXF 393; assay type: cell-based; conditions: Homo sapiens; RXF 393, Renal Cancer; single dose of 10 μM; read-out: Cell Growth Percent
SF-268 = assay: NCI 60 cell line panel (SRB), SF-268; assay type: cell-based; conditions: Homo sapiens; SF-268, CNS Cancer; single dose of 10 μM; read-out: Cell Growth Percent
CCRF-CEM = assay: NCI 60 cell line panel (SRB), CCRF-CEM; assay type: cell-based; conditions: Homo sapiens, Leukemia, single dose of 10 μM, read-out: Cell Growth Percent
OVCAR-5 = assay: NCI 60 cell line panel (SRB), OVCAR-5; assay type: cell-based; conditions: Homo sapiens; OVCAR-5, Ovarian Cancer; single dose of 10 μM; read-out: Cell Growth Percent
SK-MEL-5 = assay: NCI 60 cell line panel (SRB), SK-MEL-5; assay type: cell-based; conditions: Homo sapiens; SK-MEL-5, Melanoma; single dose of 10 μM; read-out: Cell Growth Percent
HCT-15 = assay: NCI 60 cell line panel (SRB), HCT-15; assay type: cell-based; conditions: Homo sapiens; HCT-15, Colon Cancer; single dose of 10 μM; read-out: Cell Growth Percent
SW-620 = assay: NCI 60 cell line panel (SRB), SW-620; assay type: cell-based; conditions: Homo sapiens; SW-620, Colon Cancer; single dose of 10 μM; read-out: Cell Growth Percent
HL-60(TB) = assay: NCI 60 cell line panel (SRB), HL-60(TB); assay type: cell-based; conditions: Homo sapiens, Leukemia, single dose of 10 μM, read-out: Cell Growth Percent

Structure (SMILES)	activity at 10 µM (NCI-H522)	activity at 10 µM (HS 578T)	activity at 10 µM (DU-145)	activity at 10 µM (HCC-2998)	activity at 10 µM (MDA-MB-231/ATCC)	activity at 10 µM (MOLT-4)	activity at 10 µM (HOP-92)	inhibition at 10 µM (VEGFR-2 (KDR))	activity at 10 µM (SF-539)	activity at 10 µM (SR)	activity at 10 µM (PC-3)	activity at 10 µM (SNB-75)	activity at 10 µM (NCI-H23)	activity at 10 µM (A498)	activity at 10 µM (UACC-257)	activity at 10 µM (RXF 393)	activity at 10 µM (SF-268)	activity at 10 µM (CCRF-CEM)	activity at 10 µM (OVCAR-5)	activity at 10 µM (SK-MEL-5)	further results
CCOC(=O)c1c(C)oc2ncnc(Nc3ccc(C(=O)Nc4cccc(Cl)c4)cc3)c12 [Compound 14a]	78%	107%	75.9%	105%	95.8%	94%	92%	5%	107%	74.8%	78.3%	105%	100%	92.4%	117%	76.8%	103%	93.8%	116%	92.2%	melting point: 226 to 230 °C; activity at 10 µM (HCT-15): 108%; activity at 10 µM (SW-620): 106%; activity at 10 µM (HL-60(TB)): 105%
CCOC(=O)c1c(C)oc2ncnc(Nc3ccc(C(=O)Nc4ccc(OC)cc4)cc3)c12 [Compound 14b]	84%	83.7%	97.1%	114%	91%	92.3%	78.8%	8%	63.8%	74.6%	83.6%	87.2%	95.6%	75.3%	94.7%	92%	101%	89.1%	114%	87.9%	melting point: 218 to 222 °C; activity at 10 µM (HCT-15): 88.5%; activity at 10 µM (SW-620): 112%; activity at 10 µM (HL-60(TB)): 88.6%
CCOC(=O)c1c(C)oc2ncnc(Nc3ccc(C(=O)NCCc4ccccc4)cc3)c12 [Compound 14e]	66.9%	51.2%	82.1%	91.4%	85.6%	105%	61.5%	10%	58.9%	89.2%	59.2%	7%	81.8%	77.5%	79.6%	71.7%	74.1%	80.9%	110%	85.6%	melting point: 176 to 180 °C; activity at 10 µM (HCT-15): 92.2%; activity at 10 µM (SW-620): 105%; activity at 10 µM (HL-60(TB)): 87.6%
CCOC(=O)c1c(C)oc2ncnc(Nc3ccc(NC(=O)Nc4cccc(Cl)c4)cc3)c12 [Compound 15d]	57.1%	80.6%	70.8%	105%	18.6%	49.2%	50.6%	61%	16.6%	53.6%	41.2%	70.6%	64%	63%	83.9%	63.6%	86.4%	31.5%	122%	52.9%	activity at 10 µM (HCT-15): 58.9%; activity at 10 µM (SW-620): 88.6%; activity at 10 µM (HL-60(TB)): 88.4%
CCOC(=O)c1c(C)oc2ncnc(Nc3ccc(NC(=O)Nc4ccc(CC)cc4)cc3)c12 [Compound 15i]	83.7%	97.7%	103%	114%	94.6%	98.6%	94.3%	23%	89%	81.6%	90.7%	80.5%	90.7%	109%	111%	98.2%	103%	93.7%	107%	93.7%	melting point: 242 to 246 °C; activity at 10 µM (HCT-15): 105%; activity at 10 µM (SW-620): 113%; activity at 10 µM (HL-60(TB)): 103%
O=C(Nc1ccccc1)Nc1ccc(Nc2ncnc3sc4c(c23)CCCC4)cc1 [Compound 20a]	92.9%	85.3%	109%	95.3%	91.6%	89.4%	100%	39%	104%	97.8%	89.8%	93.3%	100%	83.3%	93.5%	102%	100%	92.3%	119%	97.3%	activity at 10 µM (HCT-15): 110%; activity at 10 µM (SW-620): 106%; activity at 10 µM (HL-60(TB)): 97%
COc1cccc(NC(=O)Nc2ccc(Nc3ncnc4sc5c(c34)CCCC5)cc2)c1 [Compound 20c]	81.2%	74.4%	105%	118%	89%	81.3%	118%	67%	60.2%	84.6%	89.6%	62.7%	104%	91.3%	94.9%	116%	99.5%	94.6%	106%	92.3%	melting point: 206 to 210 °C; activity at 10 µM (HCT-15): 97.8%; activity at 10 µM (SW-620): 112%; activity at 10 µM (HL-60(TB)): 91.1%
O=C(Nc1ccc(Nc2ncnc3sc4c(c23)CCCC4)cc1)Nc1cccc(Cl)c1 [Compound 20d]	92.1%	103%	110%	103%	101%	92.3%	102%	19%	90.8%	102%	96%	94.4%	103%	86.7%	93.8%	115%	106%	97.7%	108%	98.1%	activity at 10 µM (HCT-15): 104%; activity at 10 µM (SW-620): 108%; activity at 10 µM (HL-60(TB)): 98.9%
O=C(Nc1ccc(Cl)cc1)Nc1ccc(Oc2ncnc3sc4c(c23)CCCC4)cc1 [Compound 21d]	47.5%	74.7%	91.9%	107%	70.1%	72%	102%	46%	70.9%	72.4%	57.6%	70.8%	87.4%	70.1%	91.4%	87.7%	87%	77.9%	113%	78.4%	melting point: > 300 °C; activity at 10 µM (HCT-15): 91.6%; activity at 10 µM (SW-620): 97.7%; activity at 10 µM (HL-60(TB)): 100%

— PMC4832243, “Discovery of Potent VEGFR-2 Inhibitors based on Furopyrimidine and Thienopyrimidne Scaffolds as Cancer Targeting Agents” (Scientific Reports, 2016)
